The source of these data is ChEMBL document CHEMBL1154288, “The discovery and unique pharmacological profile of RO4938581 and RO4882224 as potent and selective GABAA alpha5 inverse agonists for the treatment of cognitive dysfunction” (Bioorg Med Chem Lett, 2009).

Series [1] can be described thus: Clearance in rat. The class given is ADME, organism-based. To be noted: in vivo.
The target of series [2] is T1, GABA-A receptor; alpha-1/beta-3/gamma-2 (Homo sapiens, UniProt P14867+P18507+P28472).
T1 sequence (P14867 whole entry): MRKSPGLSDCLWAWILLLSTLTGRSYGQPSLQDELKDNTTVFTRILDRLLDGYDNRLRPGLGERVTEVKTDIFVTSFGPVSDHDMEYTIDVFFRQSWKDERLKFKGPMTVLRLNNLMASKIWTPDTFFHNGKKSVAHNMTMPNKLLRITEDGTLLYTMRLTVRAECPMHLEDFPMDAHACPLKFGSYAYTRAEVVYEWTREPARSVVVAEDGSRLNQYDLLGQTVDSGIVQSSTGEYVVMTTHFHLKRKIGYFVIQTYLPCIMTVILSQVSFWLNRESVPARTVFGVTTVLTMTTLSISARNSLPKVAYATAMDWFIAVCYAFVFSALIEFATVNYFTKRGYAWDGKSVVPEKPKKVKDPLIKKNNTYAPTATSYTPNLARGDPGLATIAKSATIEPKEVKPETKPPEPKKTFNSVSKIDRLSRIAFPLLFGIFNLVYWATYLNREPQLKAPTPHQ
T1 sequence (P18507 whole entry): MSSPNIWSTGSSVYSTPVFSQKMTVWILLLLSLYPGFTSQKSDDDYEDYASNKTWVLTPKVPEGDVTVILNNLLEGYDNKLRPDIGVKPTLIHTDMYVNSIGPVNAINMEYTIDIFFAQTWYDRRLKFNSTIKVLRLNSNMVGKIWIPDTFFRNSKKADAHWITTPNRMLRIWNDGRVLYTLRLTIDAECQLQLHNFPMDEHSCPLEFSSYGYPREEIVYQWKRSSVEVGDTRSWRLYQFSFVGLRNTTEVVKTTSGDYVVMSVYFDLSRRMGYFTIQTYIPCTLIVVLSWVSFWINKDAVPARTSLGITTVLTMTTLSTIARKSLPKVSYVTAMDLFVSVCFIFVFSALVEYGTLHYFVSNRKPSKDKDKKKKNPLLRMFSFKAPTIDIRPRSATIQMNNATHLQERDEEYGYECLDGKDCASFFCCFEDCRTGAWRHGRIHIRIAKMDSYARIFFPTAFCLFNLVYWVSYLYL
T1 sequence (P28472 whole entry): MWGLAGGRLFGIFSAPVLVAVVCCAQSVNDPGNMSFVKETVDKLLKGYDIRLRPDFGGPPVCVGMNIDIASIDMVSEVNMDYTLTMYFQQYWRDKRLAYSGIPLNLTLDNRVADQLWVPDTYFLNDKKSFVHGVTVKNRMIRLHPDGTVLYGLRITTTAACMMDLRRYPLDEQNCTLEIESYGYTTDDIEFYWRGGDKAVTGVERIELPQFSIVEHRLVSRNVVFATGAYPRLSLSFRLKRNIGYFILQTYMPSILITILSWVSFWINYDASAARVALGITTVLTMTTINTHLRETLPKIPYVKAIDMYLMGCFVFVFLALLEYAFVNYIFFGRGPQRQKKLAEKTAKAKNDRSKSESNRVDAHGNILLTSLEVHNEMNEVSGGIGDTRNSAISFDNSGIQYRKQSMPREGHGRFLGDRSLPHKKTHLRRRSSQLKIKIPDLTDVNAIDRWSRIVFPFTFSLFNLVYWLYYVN
Description: Displacement of [3H]Flumazenil from cloned human GABA alpha-1-beta-3-gamma-2 receptor expressed in HEK293 cells. Format: cell-based.

The nature of series [3]: Permeability by PAMPA. Format: ADME. To be noted: read-out: permeability. On the technique in general: In PAMPA a lipid-coated filter parts donor from acceptor wells.
Series [4] in a line: Volume of distribution at steady state in rat. The class given is ADME, organism-based. The following applies: in vivo, read-out: Vdss.
Series [5] is described as follows: Lipophilicity, log D at pH 7.4. The class given is physicochemical. To be noted: buffer.
Series [6] has as its target T2, GABA-A receptor; alpha-5/beta-3/gamma-2 (Homo sapiens, UniProt P18507+P28472+P31644).
T2 sequence (P18507 whole entry): T1 sequence (P18507 whole entry)
T2 sequence (P28472 whole entry): T1 sequence (P28472 whole entry)
T2 sequence (P31644 whole entry): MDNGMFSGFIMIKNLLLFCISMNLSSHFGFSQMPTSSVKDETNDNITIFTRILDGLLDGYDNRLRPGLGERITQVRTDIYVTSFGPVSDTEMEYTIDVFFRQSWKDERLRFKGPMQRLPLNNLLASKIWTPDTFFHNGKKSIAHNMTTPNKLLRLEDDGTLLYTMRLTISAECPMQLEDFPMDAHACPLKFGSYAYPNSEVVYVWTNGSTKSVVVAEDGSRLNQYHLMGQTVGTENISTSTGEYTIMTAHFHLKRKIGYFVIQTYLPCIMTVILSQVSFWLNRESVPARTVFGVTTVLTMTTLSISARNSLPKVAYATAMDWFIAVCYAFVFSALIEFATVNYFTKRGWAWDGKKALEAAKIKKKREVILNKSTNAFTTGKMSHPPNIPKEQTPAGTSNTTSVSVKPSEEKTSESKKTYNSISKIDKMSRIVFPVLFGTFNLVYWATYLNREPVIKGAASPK
The series can be described thus: Displacement of [3H]Flumazenil from cloned human GABA alpha-5-beta-3-gamma-2 receptor expressed in HEK293 cells. The class given is cell-based. On the technique in general: Displacement assays read how much labelled ligand stays bound in the presence of the test substance.

The target in series [7] is T3, GABA-A receptor; alpha-2/beta-3/gamma-2 (Homo sapiens, UniProt P18507+P28472+P47869).
T3 sequence (P18507 whole entry): T1 sequence (P18507 whole entry)
T3 sequence (P28472 whole entry): T1 sequence (P28472 whole entry)
T3 sequence (P47869 whole entry): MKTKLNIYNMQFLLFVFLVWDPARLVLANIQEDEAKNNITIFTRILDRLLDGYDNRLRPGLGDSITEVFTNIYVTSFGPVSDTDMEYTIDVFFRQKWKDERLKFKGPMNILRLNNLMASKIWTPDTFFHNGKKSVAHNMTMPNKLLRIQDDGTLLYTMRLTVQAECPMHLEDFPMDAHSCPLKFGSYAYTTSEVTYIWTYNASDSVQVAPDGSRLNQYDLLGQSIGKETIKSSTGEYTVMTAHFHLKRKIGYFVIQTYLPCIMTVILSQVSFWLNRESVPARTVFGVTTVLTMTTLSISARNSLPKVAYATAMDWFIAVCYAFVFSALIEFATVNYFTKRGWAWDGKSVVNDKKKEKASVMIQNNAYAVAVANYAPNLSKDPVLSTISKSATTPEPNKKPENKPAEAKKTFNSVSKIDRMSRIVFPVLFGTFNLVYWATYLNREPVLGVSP
The series can be described thus: Displacement of [3H]Flumazenil from cloned human GABA alpha-2-beta-3-gamma-2 receptor expressed in HEK293 cells. Format: cell-based.

Another series has as its system HEK293. Description: Selectivity ratio of Ki for cloned human GABA alpha-3-beta-3-gamma-2 receptor expressed in HEK293 cells to Ki for cloned human GABA alpha-5-beta-3-gamma-2 receptor expressed in HEK293 cells. Format: cell-based.
Series [8] in a line: Oral bioavailability in rat. The class given is ADME, organism-based. The following applies: in vivo.
In series [9] the target is GABA A receptor alpha-5/beta-3/gamma-2 (Rattus norvegicus) (UniProt P18508+P19969+P63079). Description: Inverse agonist activity at rat GABA alpha-5-beta-3-gamma-2 receptor expressed in HEK293 cells by electrophysiology assay relative to GABA. The class given is functional, cell-based.
Series [10] in a line: Half life in rat. Format: ADME, organism-based. The following applies: in vivo.
The nature of series [11]: Ratio of drug level in brain to plasma in rat. Format: ADME.
Series [12] has as its target GABA-A receptor; alpha-1/beta-2/gamma-2 (Rattus norvegicus) (UniProt P18508+P62813+P63138). Description: Inverse agonist activity at rat GABA alpha-1-beta-3-gamma-2 receptor expressed in HEK293 cells by electrophysiology assay relative to GABA. The class given is functional, cell-based.

In turn, `Clc1ccc2c(c1)-c1ncnn1Cc1c(Cl)ncn1-2` yielded a clearance in series [1] of 12.4 mL/min/kg. Moreover, the inhibition constant (Ki) in series [2] is 15 nM; in [6] it was 2 nM; in series [7] it was 24 nM. Further, the Papp in [3] came out at 6.5 ×10⁻⁶ cm/s. The Vd in series [4] was 0.5 L/kg. In series [5], this compound came in with a logD of 1.8. Besides, in the series on HEK293, the Ratio Ki was found to be 7. Moreover, the bioavailability in [8] came to 81%. The figures for the Efficacy in series [9] and in [12] were -40 and -3%, respectively. The half-life in series [10] is 36 min. For the same compound, the Kp in series [11] turned out to be 0.2.

Consider `FC(F)c1ncn2c1Cn1ncnc1-c1cc(Br)ccc1-2`, for which the clearance in series [1] stood at 2.9 mL/min/kg. For the same compound, the Ki in series [2] amounted to 174 nM; in series [6], 4.6 nM; in [7], 185 nM. Moreover, the Papp in series [3] is 7 ×10⁻⁶ cm/s. Moreover, in series [4], the Vd amounted to 1.2 L/kg. The same compound yielded a logD in series [5] of 1.9. This compound gave a bioavailability in series [8] of 89%. Further, the Efficacy in [9] is -35%; in [12], -3%. The half-life in series [10] was 294 min. For the same compound, the Kp in series [11] worked out at 0.4.

In series [1], `Cc1ncn2c1Cn1ncnc1-c1cc(Cl)ccc1-2` had a clearance of 7.2 mL/min/kg. For the same compound, the Ki in series [2] is 18 nM; in [6] it was 3 nM; in series [7], 219 nM. The Papp in series [3] amounted to 8.9 ×10⁻⁶ cm/s. For the same compound, the Vd in [4] was 1.9 L/kg. For the same compound, the logD in [5] was 2. Moreover, in the series on HEK293, the Ratio Ki came to 88. Also, the bioavailability in series [8] was 52%. The values for the Efficacy in series [9] and in series [12] were -41% and -11%, respectively. Moreover, the half-life in series [10] is 204 min. Moreover, in series [11], the Kp turned out to be 0.6.

In series [1], `Clc1ncn2c1Cn1ncnc1-c1cc(Br)ccc1-2` displayed a clearance of 9.7 mL/min/kg. Further, the Ki came to 33 nM in series [2], 1.4 nM in series [6] and 24 nM in series [7]. Also, the Papp in series [3] came out at 7 ×10⁻⁶ cm/s. Moreover, the Vd in series [4] came out at 1.3 L/kg. For the same compound, the logD in series [5] turned out to be 2.2. Besides, the Ratio Ki in the series with HEK293 amounted to 7. The bioavailability in series [8] is 56%. The Efficacy in [9] was -48%; in series [12], -13%. Moreover, in series [10], the half-life was 96 min.

As a reminder, the clearance is a measure of how efficiently the substance is removed, as volume per time. Low values mean a low capacity for elimination, high ones a high capacity for elimination. As usually defined, the Ki is the equilibrium dissociation constant of an inhibitor or competing ligand from its target. A low value points to higher affinity. In general, logD refers to the decadic logarithm of the distribution of all forms, ionised or not, between an organic phase and buffer at a given pH. For orientation: bioavailability means dose-corrected exposure relative to a reference, in per cent. Broadly, the half-life is how long it takes for the measured level to halve. Low readings indicate fast loss, high ones slow loss. Broadly, the Kp is the ratio of the level in a tissue or fluid to that in plasma or blood.
